Source: patent US20250059183A1, “PYRIDINE[4,3-D]PYRIMIDINE COMPOUND AS TLR7/8 AGONIST” (SHANGHAI VISONPHARMA CO., LTD., priority 2021, published 2025)

Assays:
human TLR7 = target: T1, human TLR7 (Homo sapiens, UniProt Q9NYK1); experiment: HEK-Blue hTLR7 SEAP reporter gene agonist assay; assay type: cell-based; conditions: HEK-Blue hTLR7 cells, 16 to 22 hours incubation
T1 construct: host or cells: HEK-Blue hTLR7 (HEK293-derived reporter cells)
T1 sequence (Q9NYK1 27-1049): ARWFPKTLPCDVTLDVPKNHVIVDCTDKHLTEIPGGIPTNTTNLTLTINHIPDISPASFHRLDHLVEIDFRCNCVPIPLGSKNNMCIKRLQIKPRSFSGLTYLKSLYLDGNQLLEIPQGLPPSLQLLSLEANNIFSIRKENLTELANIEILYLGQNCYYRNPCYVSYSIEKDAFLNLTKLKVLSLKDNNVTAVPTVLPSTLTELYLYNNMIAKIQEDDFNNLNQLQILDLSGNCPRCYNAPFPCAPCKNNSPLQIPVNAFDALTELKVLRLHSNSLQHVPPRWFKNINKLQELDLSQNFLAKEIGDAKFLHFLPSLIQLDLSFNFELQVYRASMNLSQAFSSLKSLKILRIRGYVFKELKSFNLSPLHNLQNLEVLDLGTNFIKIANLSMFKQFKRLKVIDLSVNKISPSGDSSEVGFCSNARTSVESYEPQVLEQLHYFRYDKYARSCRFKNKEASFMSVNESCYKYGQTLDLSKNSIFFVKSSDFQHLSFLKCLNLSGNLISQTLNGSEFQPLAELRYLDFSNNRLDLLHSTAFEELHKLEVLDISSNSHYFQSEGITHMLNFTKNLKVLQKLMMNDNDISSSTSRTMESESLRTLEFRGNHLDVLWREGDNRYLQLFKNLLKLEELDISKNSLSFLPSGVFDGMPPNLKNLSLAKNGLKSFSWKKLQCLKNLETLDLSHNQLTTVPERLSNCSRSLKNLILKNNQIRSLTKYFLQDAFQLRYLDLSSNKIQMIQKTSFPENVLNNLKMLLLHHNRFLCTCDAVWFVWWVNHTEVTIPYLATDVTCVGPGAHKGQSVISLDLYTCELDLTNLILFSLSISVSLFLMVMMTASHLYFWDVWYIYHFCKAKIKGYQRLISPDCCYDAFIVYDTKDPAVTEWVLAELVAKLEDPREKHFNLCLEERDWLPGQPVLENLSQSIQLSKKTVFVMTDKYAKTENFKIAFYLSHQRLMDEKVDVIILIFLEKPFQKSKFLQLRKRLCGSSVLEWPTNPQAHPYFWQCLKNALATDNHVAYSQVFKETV
Protocol: (§1) HEK-Blue™ cells that stably express human TLR7 or TLR8 are used to evaluate the agonistic activity of the compounds on TLR7 or TLR8, which is determined by the induction of the expression of SEAP reporter gene under the control of minimum IFN-β promoter fusion to 5×NF-κB and AP-1 binding sites. The assay is conducted as below:
(§2) HEK-Blue™ hTLR7 (Invivogen, 80,000 cells per well) or HEK-Blue™ hTLR8 (Invivogen, 60,000 cells per well) were added to the 96-well cell culture plate, followed by adding of the test compound. The final concentration of the test compound in the medium ranged from […], and was incubated for 16 to 22 hours. According to the manufacturer's instructions, the HEK-Blue assay reagent Quanti-blue (Invivogen) was used to measure SEAP levels in cell media. Optical density at 650 nm (OD650) was measured by Neo2 multifunction plate reader (Bio-tek). The half effective concentration (EC50) was calculated using GraphPad Prism.

human TLR8 = target: T2, human TLR8 (Homo sapiens, UniProt Q9NR97); experiment: HEK-Blue hTLR8 SEAP reporter gene agonist assay; assay type: cell-based; conditions: HEK-Blue hTLR8 cells, 16 to 22 hours incubation
T2 construct: host or cells: HEK-Blue hTLR8 (HEK293-derived reporter cells)
T2 sequence (Q9NR97 27-1041): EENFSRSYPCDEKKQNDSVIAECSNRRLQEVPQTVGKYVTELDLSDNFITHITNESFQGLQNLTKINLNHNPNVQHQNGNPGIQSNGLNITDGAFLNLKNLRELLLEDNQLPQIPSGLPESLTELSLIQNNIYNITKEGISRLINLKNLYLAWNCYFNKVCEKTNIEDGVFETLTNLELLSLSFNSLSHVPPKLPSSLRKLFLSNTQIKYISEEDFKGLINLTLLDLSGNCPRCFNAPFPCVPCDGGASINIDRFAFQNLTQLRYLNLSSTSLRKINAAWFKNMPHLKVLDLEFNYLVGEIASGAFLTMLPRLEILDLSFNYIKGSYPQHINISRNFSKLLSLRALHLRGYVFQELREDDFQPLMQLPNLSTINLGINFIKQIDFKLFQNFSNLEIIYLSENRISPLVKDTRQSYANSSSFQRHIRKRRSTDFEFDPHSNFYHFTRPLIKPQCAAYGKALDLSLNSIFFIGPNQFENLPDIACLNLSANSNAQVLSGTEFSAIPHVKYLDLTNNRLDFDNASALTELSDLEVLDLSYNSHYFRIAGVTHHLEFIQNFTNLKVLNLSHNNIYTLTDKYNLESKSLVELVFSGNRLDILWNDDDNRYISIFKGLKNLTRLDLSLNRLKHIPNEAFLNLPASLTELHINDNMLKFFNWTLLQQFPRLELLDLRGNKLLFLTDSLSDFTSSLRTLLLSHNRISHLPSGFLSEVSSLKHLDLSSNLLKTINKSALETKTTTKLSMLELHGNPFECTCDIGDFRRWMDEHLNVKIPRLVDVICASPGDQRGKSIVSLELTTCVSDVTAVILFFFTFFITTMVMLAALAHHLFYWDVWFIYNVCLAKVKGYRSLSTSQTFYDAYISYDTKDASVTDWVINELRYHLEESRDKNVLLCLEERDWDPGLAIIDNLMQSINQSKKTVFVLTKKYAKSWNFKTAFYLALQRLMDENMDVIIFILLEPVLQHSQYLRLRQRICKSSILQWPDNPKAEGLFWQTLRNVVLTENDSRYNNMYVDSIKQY
Protocol: as §1, §2

| EC50 (human TLR7) [µM] | EC50 (human TLR8) [µM] | Structure (SMILES) |
| --- | --- | --- |
| 0.081 | 0.058 | CCCCNc1nc(N)nc2ccn(Cc3ccc(CN4CCCC4)cc3)c(=O)c12 [Compound I-1, 2-amino-4-(butylamino)-6-(4-(pyrrolidin-1-ylmethyl)benzyl)pyrido[4,3-d]pyrimidin-5(6H)-one] |
| 0.064 | 0.107 | CCCCNc1nc(N)nc2ccn(Cc3ccc(CN4CCCC4)cc3OC)c(=O)c12 [Compound I-2, 2-amino-4-(butylamino)-6-(2-methoxy-4-(pyrrolidin-1-ylmethyl)benzyl)pyrido[4,3-d]pyrimidin-5(6H)-one] |
| 0.085 | 0.077 | CCCCNc1nc(N)nc2ccn(Cc3ccc(C(=O)N4CCNCC4)cc3)c(=O)c12 [Compound I-14, 2-amino-4-(butylamino)-6-(4-(piperazine-1-carbonyl)benzyl)pyrido[4,3-d]pyrimidin-5(6H)-one] |
| 0.087 | 0.058 | CCCCNc1nc(N)nc2ccn(Cc3ccc(CN(C)C)cc3)c(=O)c12 [Compound I-35, 2-amino-4-(butylamino)-6-(4-((dimethylamino)methyl)benzyl)pyrido[4,3-d]pyrimidin-5(6H)-one] |
| 0.098 | 0.088 | CCCCNc1nc(N)nc2ccn(Cc3ccc(CN4CCCC4)cc3F)c(=O)c12 [Compound I-51, 2-amino-4-(butylamino)-6-(2-fluoro-4-(pyrrolidin-1-ylmethyl)benzyl)pyrido[4,3-d]pyrimidin-5(6H)-one] |
| 0.083 | 0.056 | CCCCNc1nc(N)nc2ccn(Cc3ccc(CN4CC5(COC5)C4)cc3)c(=O)c12 [Compound I-52, 6-(4-((2-oxa-6-azaspiro[3.3]heptan-6-yl)methyl)benzyl)-2-amino-4-(butylamino)pyri do[4,3-d]pyrimidin-5(6H)-one] |
| 0.061 | 0.092 | CCCCNc1nc(N)nc2ccn(Cc3ccc(C(=O)N4CCN(C(C)C)CC4)cc3)c(=O)c12 [Compound I-53, 2-amino-4-(butylamino)-6-(4-(4-isopropylpiperazine-1-carbonyl)benzyl)pyrido[4,3-d]pyrimidin-5(6H)-one] |
| 0.203 | 0.064 | CCCCNc1nc(N)nc2ccn(Cc3ccc(C(=O)N4C5CNCC4C5)cc3)c(=O)c12 [Compound I-65, 6-(4-(3,6-diazabicyclo[3.1.1]heptane-6-carbonyl)benzyl)-2-amino-4-(butylamino)pyri do[4,3-d]pyrimidin-5(6H)-one] |
| 0.064 | 0.081 | CCCCNc1nc(N)nc2ccn(Cc3ccc(C(=O)N4CCNCC4)cc3OC)c(=O)c12 [Compound I-72, 2-amino-4-(butylamino)-6-(2-methoxy-4-(piperazine-1-carbonyl)benzyl)pyrido[4,3-d]pyrimidin-5(6H1)-one] |
| 0.087 | 0.105 | CCCCNc1nc(N)nc2ccn(Cc3ccc(C(=O)N4CCN(C)CC4)c(OC)c3)c(=O)c12 [Compound I-79, 2-amino-4-(butylamino)-6-(3-methoxy-4-(4-methylpiperazine-1-carbonyl)benzyl)pyrido[4,3-d]pyrimidin-5(6H)-one] |
| 0.068 | 0.047 | CCCCNc1nc(N)nc2ccn(Cc3ccc(CCN(C)C)cc3)c(=O)c12 [Compound I-90, 2-amino-4-(butylamino)-6-(4-(2-(dimethylamino)ethyl)benzyl)pyrido[4,3-d]pyrimidin-5(6H)-one] |
| 0.065 | 0.046 | CCCC(CCO)Nc1nc(N)nc2ccn(Cc3ccc(CN4CCCC4)cc3)c(=O)c12 (stereo not drawn) [Compound I-95, 2-amino-4-((1-hydroxyhexan-3-yl)amino)-6-(4-(pyrrolidin-1-ylmethyl)benzyl)pyrido[4,3-d]pyrimidin-5(6H)-one] |
| 0.05 | 0.031 | CCCC(CCOC(=O)C(F)(F)F)Nc1nc(N)nc2ccn(Cc3ccc(CN4CCCC4)cc3)c(=O)c12 (stereo not drawn) [Compound I-96, 3-((2-amino-5-oxo-6-(4-(pyrrolidin-1-ylmethyl)benzyl)-5,6-dihydropyrido[4,3-d]pyrimidin-4-yl)amino)hexyl 2,2,2-trifluoroacetate] |
| 0.101 | 0.085 | CCCCNc1nc(N)nc2ccn(Cc3ccc(CN(CCC)CCO)cc3)c(=O)c12 [Compound I-98, 2-amino-4-(butylamino)-6-(4-(((2-hydroxyethyl)(propyl)amino)methyl)benzyl)pyrido[4,3-d]pyrimidin-5(6H)-one] |
| 0.064 | 0.047 | CCC[C@@H](C)Nc1nc(N)nc2ccn(Cc3ccc(CN4CCCC4)cc3)c(=O)c12 [Compound I-103, (R)-2-amino-4-(pentan-2-ylamino)-6-(4-(pyrrolidin-1-ylmethyl)benzyl)pyrido[4,3-d]pyrimidin-5(6H)-one] |
| 0.055 | 0.049 | CCC[C@@H](C)Nc1nc(N)nc2ccn(Cc3ccc(C(=O)N4CCNCC4)cc3)c(=O)c12 [Compound I-117, (R)-2-amino-4-(pentan-2-ylamino)-6-(4-(piperazine-1-carbonyl)benzyl)pyrido[4,3-d]pyrimidin-5(6H)-one] |
| 0.04 | 0.052 | CCC[C@@H](CCO)Nc1nc(N)nc2ccn(Cc3ccc(CN4CCCC4)cc3)c(=O)c12 [Compound I-118, (S)-2-amino-4-((1-hydroxyhexan-3-yl)amino)-6-(4-(pyrrolidin-1-ylmethyl)benzyl)pyrido[4,3-d]pyrimidin-5(6H)-one] |
| 0.046 | 0.053 | CCCCNc1nc(N)nc2ccn(Cc3ccc(C(=O)N4CCN(CCO)CC4)cc3OC)c(=O)c12 [Compound I-120, 2-amino-4-(butylamino)-6-(4-(4-(2-hydroxyethyl)piperazine-1-carbonyl)-2-methoxybenzyl)pyrido[4,3-d]pyrimidin-5(6H)-one] |
| 0.023 | 0.034 | CCC[C@@H](C)Nc1nc(N)nc2ccn(Cc3ccc(C(=O)N4CCN(CCO)CC4)cc3OC)c(=O)c12 [Compound I-123, (R)-2-amino-6-(4-(4-(2-hydroxyethyl)piperazine-1-carbonyl)-2-methoxybenzyl)-4-(pentan-2-ylamino)pyrido[4,3-d]pyrimidin-5(6H)-one] |
| 0.065 | – | CCC[C@@H](CC)Nc1nc(N)nc2ccn(Cc3ccc(C(=O)N4CCNCC4)cc3)c(=O)c12 [Compound I-137, (R)-2-amino-4-(hexan-3-ylamino)-6-(4-(piperazine-1-carbonyl)benzyl)pyrido[4,3-d]pyrimidin-5(6H)-one] |
